Laboratory results reported in ChEMBL document CHEMBL1143192, “Anti-HIV-1 entry optimization of novel imidazopiperidine-tropane CCR5 antagonists” (Bioorg Med Chem Lett, 2008).

Assays:
Assay type in all cases: ADME, organism-based
[1] = Cmax in rat at 30 mg/kg, po; design: dose 30 mg/kg, route oral; settings: in vivo
[2] = AUC in rat at 5 mg/kg, iv; design: dose 5 mg/kg, route intravenous; settings: plasma
[3] = Half life in rat at 5 mg/kg, iv; design: dose 5 mg/kg, route intravenous; settings: in vivo
[4] = Clearance in rat at 5 mg/kg, iv; design: dose 5 mg/kg, route intravenous; settings: in vivo
[5] = AUC in rat at 30 mg/kg, po; design: dose 30 mg/kg, route oral; settings: plasma
[6] = Half life in rat at 30 mg/kg, po; design: dose 30 mg/kg, route oral; settings: in vivo
[7] = Cmax in rat at 5 mg/kg, iv; design: dose 5 mg/kg, route intravenous; settings: in vivo
[8] = Oral bioavailability in rat at 30 mg/kg; settings: in vivo

Cmax [1]: 540 ng/mL
AUC [2]: 2890 ng·h/mL
half-life [3]: 10.7 h
clearance [4]: 28.8 mL/min/kg
AUC [5]: 8990 ng·h/mL
half-life [6]: 7.2 h
Cmax [7]: 860 ng/mL
bioavailability [8]: 52%
Structure (SMILES): CC(=O)N1CCc2c(nc(C)n2[C@@H]2C[C@H]3CC[C@@H](C2)N3CCCN(C(=O)Nc2ccc(C(F)(F)F)cc2)c2ccccc2)C1
